Source: patent publication US4032536A, “(1H-Benzimidazol-2-yl)carbamates” (Janssen Pharmaceutica N.V., priority 1976, dated 1977)

Key:
Syphacia muris = experiment: Activity against Syphacia muris in rats; assay type: in vivo; conditions: po, 120 h, orally by gavage, autopsy five days after treatment
Protocol: A. Activity against Syphacia muris in rats.
(§1) Syphacia muris was selected as a test organism since this organism manifests its relationship with the human oxyuris, Enterobin vermicularis,by its life cycle, by the cyclical period of activity and by laying its eggs in the peri-anal zone. For artificial infections, adhesive cellophane tape is used to recover the eggs from the peri-anal skin and this tape is administered orally to rats. The thus-infected animals are housed in individual cages with food and water ad libitum. The compound to be tested is administered orally by gavage. A sterile saline solution or suspension of the compound is made at various concentrations corresponding to 40, 10, 2.5, 1.25, 0.63, 0.31 and 0.16 mg/kg body weight. Control animals receive the same amount of saline. Five days thereafter the animals are sacrificed. Coecum, colon and rectum are isolated and washed on a sieve of mesh 100. Table I gives the ED50 -values for a number of the compounds of formula (I). The compounds listed therein are not given for the purpose of limiting the invention thereto but only to exemplify the useful anthelmintic properties of all the compounds within the scope of formula (I).

Strongyloides ratti = experiment: Activity against Strongyloides ratti in rats; assay type: in vivo; conditions: po, young male Wistar rats, orally, treated on day 7 after infection, autopsied day 13, 50% reduction of number of worms vs untreated controls
Protocol: as §1
B. Activity against Strongyloides ratti in rats.
Young male Wistar rats, weighing about 100 g are used in this test. Infective larvae of Strongyloides ratti are collected from charcoal cultures, put into a beaker with tapwater and stirred magnetically for counting. The rats are infected subcutaneously with about 1000 larvae, treated on day 7 after infection in the same manner as described in experiment A, and autopsied on day 13. The anterior part of the intestine is divided into two sections, each of 10 cm. length and placed inside out on a wood-applicator. These sections are incubated in physiological saline for 4 hours at 37° C. Worms obtained from the sedimentation of incubation saline are sampled and counted under a dissection microscope. In table I are given ED50 -values for a number of compounds of formula (I). These ED50 -values represent the amount of the compound under investigation in mg/kg which reduces the number of worms 50% with respect to the number found in the untreated control animals.

Structure (SMILES) | ED50 (Syphacia muris) [mg/kg] | ED50 (Strongyloides ratti) [mg/kg]
COC(=O)Nc1nc2ccc(C3(c4cccs4)OCCO3)cc2[nH]1 | 2.5 | 2.5
COC(=O)Nc1nc2ccc(C3(c4ccccc4)OCCO3)cc2[nH]1 | 1.25 | 0.63
COC(=O)Nc1nc2ccc(C3(c4ccc(F)cc4)OCCO3)cc2[nH]1 | 5 | 0.31
COC(=O)Nc1nc2ccc(C3(c4ccccc4)OCC(C)O3)cc2[nH]1 (stereo not shown) | 2.5 | 0.31
COC(=O)Nc1nc2ccc(C3(c4ccccc4)OC(C)C(C)O3)cc2[nH]1 (stereo not shown) | 2.5 | 1.25
COC(=O)Nc1nc2ccc(C3(c4cccs4)OC(C)C(C)O3)cc2[nH]1 (stereo not shown) | 2.5 | 10
COC(=O)Nc1nc2ccc(C3(c4cccs4)OCC(C)O3)cc2[nH]1 (stereo not shown) | 10 | 10
COC(=O)Nc1nc2ccc(C3(c4ccccc4)OCC(C)(C)CO3)cc2[nH]1 | 10 | 2.5
COC(=O)Nc1nc2ccc(C3(c4cccs4)OCC(C)(C)CO3)cc2[nH]1 | 40 | 10
COC(=O)Nc1nc2ccc(C3(c4cccs4)OCCC(C)O3)cc2[nH]1 (stereo not shown) | 10 | 10
COC(=O)Nc1nc2ccc(C3(c4ccccc4)OCCC(C)O3)cc2[nH]1 (stereo not shown) | 40 | 1.25
